Values of other authors, collected in US7612202B2, “Process for preparing temozolomide” (Chemagis, Ltd., priority 2005, dated 2009).
“Also recorded” adds a separate entry of the source.

Tests used:
[1] = administered Temozolomide dose

Cn1nnc2c(C(N)=O)ncn2c1=O [Temozolomide, 8-carbamoyl-3-methyl-imidazo[5,1-d]-1,2,3,5-tetrazin-4(3H)-one]
stability at acidic pH (aqueous buffers, pH<5): stable
stability at pH>7 (aqueous buffers, pH>7): labile; also recorded: rapidly decomposes to MTIC
in vitro half-life (phosphate buffer at 37° C. and pH 7.4): 1.9 h
percentage of administered dose metabolized to TMA [1]: about 2%
